# Measured values as given in ChEMBL document CHEMBL4619814, “Identification and Development of 1,4-Diaryl-1,2,3-triazolo-Based Ureas as Novel FLT3 Inhibitors” (ACS Med Chem Lett, 2020).
# Key:
# [1] = tested on: Receptor-type tyrosine-protein kinase FLT3 (Homo sapiens), P36888 [UNDEFINED MUTATION]; conditions: BaF3
# Description: Inhibition of FLT3 ITD mutant expressed in human BaF3 cells assessed as reduction in cell growth incubated for 72 hrs by CCK8 assay
# [2] = tested on: Receptor-type tyrosine-protein kinase FLT3 (Homo sapiens), P36888 [UNDEFINED MUTATION]; conditions: MV4-11
# Description: Inhibition of FLT3 ITD mutant expressed in human MV4-11 cells assessed as reduction in cell growth incubated for 72 hrs by CCK8 assay
# in vitro = conditions: mouse, BaF3 cells
# Description: Cytotoxicity against human BAF3 cells assessed as growth inhibition incubated for 72 hrs by CCK8 assay
# Sequence of Receptor-type tyrosine-protein kinase FLT3 (Homo sapiens), P36888 [UNDEFINED MUTATION] (P36888 whole entry, looked up, change not shown): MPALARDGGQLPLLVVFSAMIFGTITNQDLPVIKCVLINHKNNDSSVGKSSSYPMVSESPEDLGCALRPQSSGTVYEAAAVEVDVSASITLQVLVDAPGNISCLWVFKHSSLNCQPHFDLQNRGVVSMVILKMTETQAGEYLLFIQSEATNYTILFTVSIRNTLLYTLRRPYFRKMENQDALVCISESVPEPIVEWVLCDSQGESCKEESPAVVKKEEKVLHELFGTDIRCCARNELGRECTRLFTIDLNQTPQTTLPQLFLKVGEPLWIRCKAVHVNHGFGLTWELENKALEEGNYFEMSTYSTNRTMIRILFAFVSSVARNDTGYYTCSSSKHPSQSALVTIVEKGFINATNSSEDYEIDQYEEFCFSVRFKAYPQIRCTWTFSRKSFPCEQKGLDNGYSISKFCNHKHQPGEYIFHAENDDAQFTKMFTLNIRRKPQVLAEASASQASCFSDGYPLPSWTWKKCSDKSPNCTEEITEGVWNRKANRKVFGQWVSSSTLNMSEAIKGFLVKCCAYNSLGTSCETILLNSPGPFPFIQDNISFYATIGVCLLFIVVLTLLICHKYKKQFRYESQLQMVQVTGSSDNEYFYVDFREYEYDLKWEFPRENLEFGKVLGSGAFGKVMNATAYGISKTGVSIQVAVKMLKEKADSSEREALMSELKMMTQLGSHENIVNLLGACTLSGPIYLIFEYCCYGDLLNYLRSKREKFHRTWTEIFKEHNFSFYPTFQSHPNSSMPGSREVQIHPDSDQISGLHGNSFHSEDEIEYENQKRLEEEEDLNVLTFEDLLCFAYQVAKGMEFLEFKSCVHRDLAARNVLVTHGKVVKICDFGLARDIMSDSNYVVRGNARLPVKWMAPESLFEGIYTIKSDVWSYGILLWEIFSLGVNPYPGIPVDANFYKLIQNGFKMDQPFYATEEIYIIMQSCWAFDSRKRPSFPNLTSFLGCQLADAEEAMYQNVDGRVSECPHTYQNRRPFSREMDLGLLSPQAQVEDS
GI50 [1],GI50 [2],GI50 at 72 h (in vitro),SMILES
,0.004 µM,> 3 µM,CN(C)CCOc1ccc(-n2cc(-c3ccc(NC(=O)Nc4cc(C(C)(C)C)on4)cc3)nn2)c(Cl)c1
0.0015 µM,0.0103 µM,> 3 µM,CC(C)(C)c1cc(NC(=O)Nc2ccc(-c3cn(-c4ccc(OCCN5CCOCC5)cc4)nn3)c(F)c2)no1
,0.005 µM,2.04 µM,CC(C)(C)c1cc(NC(=O)Nc2ccc(-c3cn(-c4ccc(OCCN5CCCC5)cc4Cl)nn3)cc2)no1
,0.0051 µM,> 3 µM,CC(C)(C)c1cc(NC(=O)Nc2ccc(-c3cn(-c4ccc(OCCN5CCOCC5)cc4F)nn3)cc2)no1
0.0485 µM,0.106 µM,1.53 µM,CC(C)(C)c1cc(NC(=O)Nc2ccc(-c3cn(-c4ccc(OCCN5CCOCC5)c(C(F)(F)F)c4)nn3)cc2)no1
,0.0056 µM,1.96 µM,CC(C)(C)c1cc(NC(=O)Nc2ccc(-c3cn(-c4ccc(OCCN5CCCCC5)cc4Cl)nn3)cc2)no1
0.001 µM,0.0071 µM,1.97 µM,Cc1cc(-n2cc(-c3ccc(NC(=O)Nc4cc(C(C)(C)C)on4)cc3)nn2)ccc1OCCN1CCOCC1
0.0028 µM,0.0215 µM,1.38 µM,CC(C)(C)c1cc(NC(=O)Nc2ccc(-c3cn(-c4ccc(OCCN5CCOCC5)c(Cl)c4)nn3)cc2)no1
,0.004 µM,> 3 µM,CC(C)(C)c1cc(NC(=O)Nc2ccc(-c3cn(-c4ccc(OCCN5CCOCC5)cc4)nn3)cc2)no1

# Second part, the compound before the results:
SMILES,GI50 [1],GI50 [2],GI50 at 72 h (in vitro)
CC(C)(C)c1cc(NC(=O)Nc2ccc(-c3cn(-c4ccc(OCCN5CCOCC5)c([N+](=O)[O-])c4)nn3)cc2)no1,0.0554 µM,0.0392 µM,> 3 µM
CC(C)(C)c1cc(NC(=O)Nc2ccc(-c3cn(-c4ccc(OCCN5CCOCC5)cc4Br)nn3)cc2)no1,0.0023 µM,0.0057 µM,2.02 µM
CC(C)(C)c1cc(NC(=O)Nc2ccc(-c3cn(-c4ccc(OCCN5CCOCC5)cc4)nn3)cc2F)no1,0.0042 µM,0.0196 µM,> 3 µM
CC(C)(C)c1cc(NC(=O)Nc2ccc(-c3cn(-c4ccc(OCCN5CCOCC5)cc4)nn3)c(Cl)c2)no1,0.003 µM,0.012 µM,> 3 µM
CC(C)(C)c1cc(NC(=O)Nc2ccc(-c3cn(-c4ccc(OCCN5CCOCC5)cc4)nn3)cc2Cl)no1,0.165 µM,0.498 µM,> 3 µM
CC(C)(C)c1cc(NC(=O)Nc2ccc(-c3cn(-c4ccc(OCCCN5CCOCC5)cc4Cl)nn3)cc2)no1,0.0015 µM,0.0062 µM,> 3 µM
COc1cc(-n2cc(-c3ccc(NC(=O)Nc4cc(C(C)(C)C)on4)cc3)nn2)ccc1OCCN1CCOCC1,,0.0048 µM,> 3 µM
COc1cc(-c2cn(-c3ccc(OCCN4CCOCC4)cc3)nn2)ccc1NC(=O)Nc1cc(C(C)(C)C)on1,0.851 µM,1.22 µM,1.51 µM
CC(C)(C)c1cc(NC(=O)Nc2ccc(-c3cn(-c4ccc(OCCN5CCOCC5)cc4C(F)(F)F)nn3)cc2)no1,0.0405 µM,0.0586 µM,> 3 µM
Cc1cc(-c2cn(-c3ccc(OCCN4CCOCC4)cc3)nn2)ccc1NC(=O)Nc1cc(C(C)(C)C)on1,0.0615 µM,0.344 µM,2.16 µM
